From the NIST ThermoML archive (doi:10.1021/je900672g)

Assay: isobaric coefficient of expansion
Settings: Liquid, DSC

CC[N+](=O)[O-] [nitroethane]
isobaric coefficient of expansion
Settings	278.15 K	288.15 K	298.15 K	308.15 K	318.15 K	328.15 K	338.15 K	348.15 K
5000 kPa	0.00113 1/K	0.00114 1/K	0.00115 1/K	0.00117 1/K	0.00119 1/K	0.0012 1/K	0.00122 1/K	0.00126 1/K
10000 kPa	0.0011 1/K	0.00111 1/K	0.00112 1/K	0.00114 1/K	0.00116 1/K	0.00116 1/K	0.00119 1/K	0.00121 1/K
15000 kPa	0.00109 1/K	0.00109 1/K	0.0011 1/K	0.00111 1/K	0.00113 1/K	0.00113 1/K	0.00114 1/K	0.00117 1/K
20000 kPa	0.00106 1/K	0.00107 1/K	0.00107 1/K	0.00109 1/K	0.0011 1/K	0.0011 1/K	0.00111 1/K	0.00112 1/K
25000 kPa	0.00104 1/K	0.00105 1/K	0.00105 1/K	0.00106 1/K	0.00107 1/K	0.00107 1/K	0.00108 1/K	0.0011 1/K
30000 kPa	0.00102 1/K	0.00103 1/K	0.00103 1/K	0.00104 1/K	0.00105 1/K	0.00104 1/K	0.00106 1/K	0.00107 1/K
35000 kPa	0.00101 1/K	0.00101 1/K	0.00101 1/K	0.00102 1/K	0.00102 1/K	0.00103 1/K	0.00103 1/K	0.00104 1/K
40000 kPa	0.000984 1/K	0.000987 1/K	0.000993 1/K	0.000994 1/K	0.000999 1/K	0.001 1/K	0.00101 1/K	0.00101 1/K
45000 kPa	0.000973 1/K	0.000972 1/K	0.000973 1/K	0.000977 1/K	0.000981 1/K	0.000984 1/K	0.000982 1/K	0.000989 1/K
50000 kPa	0.000958 1/K	0.00096 1/K	0.00096 1/K	0.000961 1/K	0.000964 1/K	0.000964 1/K	0.000964 1/K	0.000966 1/K
55000 kPa	0.00094 1/K	0.000944 1/K	0.000941 1/K	0.000942 1/K	0.000945 1/K	0.000944 1/K	0.000945 1/K	0.000947 1/K

CCC[N+](=O)[O-] [1-nitropropane]
isobaric coefficient of expansion
Settings	278.15 K	288.15 K	298.15 K	308.15 K	318.15 K	328.15 K	338.15 K	348.15 K
5000 kPa	0.00105 1/K	0.00106 1/K	0.00108 1/K	0.00109 1/K	0.00113 1/K	0.00115 1/K	0.00119 1/K	0.00122 1/K
10000 kPa	0.00103 1/K	0.00104 1/K	0.00105 1/K	0.00106 1/K	0.00109 1/K	0.00111 1/K	0.00113 1/K	0.00117 1/K
15000 kPa	0.00101 1/K	0.00101 1/K	0.00103 1/K	0.00104 1/K	0.00106 1/K	0.00107 1/K	0.00109 1/K	0.00111 1/K
20000 kPa	0.000982 1/K	0.000991 1/K	0.001 1/K	0.00101 1/K	0.00103 1/K	0.00104 1/K	0.00105 1/K	0.00107 1/K
25000 kPa	0.000966 1/K	0.000972 1/K	0.000977 1/K	0.000986 1/K	0.000995 1/K	0.00101 1/K	0.00102 1/K	0.00103 1/K
30000 kPa	0.000943 1/K	0.000954 1/K	0.000958 1/K	0.000963 1/K	0.000976 1/K	0.000981 1/K	0.000988 1/K	0.000996 1/K
35000 kPa	0.000933 1/K	0.000932 1/K	0.000941 1/K	0.000945 1/K	0.000952 1/K	0.000957 1/K	0.000964 1/K	0.000967 1/K
40000 kPa	0.000913 1/K	0.000916 1/K	0.00092 1/K	0.000921 1/K	0.000927 1/K	0.00093 1/K	0.00093 1/K	0.000932 1/K
45000 kPa	0.000902 1/K	0.000902 1/K	0.000904 1/K	0.000906 1/K	0.00091 1/K	0.000912 1/K	0.000914 1/K	0.000915 1/K
50000 kPa	0.000885 1/K	0.000887 1/K	0.000889 1/K	0.000891 1/K	0.000895 1/K	0.000894 1/K	0.000894 1/K	0.000894 1/K
55000 kPa	0.000871 1/K	0.000874 1/K	0.000875 1/K	0.000873 1/K	0.00088 1/K	0.00088 1/K	0.000883 1/K	0.000879 1/K

CCC#N [propanenitrile]
isobaric coefficient of expansion
Settings	278.15 K	288.15 K	298.15 K	308.15 K	318.15 K	328.15 K	338.15 K	348.15 K
5000 kPa	0.00122 1/K	0.00125 1/K	0.00128 1/K	0.0013 1/K	0.00135 1/K	0.00139 1/K	0.00144 1/K	0.0015 1/K
10000 kPa	0.0012 1/K	0.00121 1/K	0.00123 1/K	0.00126 1/K	0.00129 1/K	0.00133 1/K	0.00136 1/K	0.00141 1/K
15000 kPa	0.00117 1/K	0.00118 1/K	0.0012 1/K	0.00121 1/K	0.00125 1/K	0.00127 1/K	0.0013 1/K	0.00133 1/K
20000 kPa	0.00114 1/K	0.00115 1/K	0.00117 1/K	0.00118 1/K	0.0012 1/K	0.00122 1/K	0.00125 1/K	0.00127 1/K
25000 kPa	0.00111 1/K	0.00112 1/K	0.00113 1/K	0.00114 1/K	0.00116 1/K	0.00118 1/K	0.0012 1/K	0.00122 1/K
30000 kPa	0.00109 1/K	0.0011 1/K	0.00111 1/K	0.00111 1/K	0.00113 1/K	0.00114 1/K	0.00115 1/K	0.00117 1/K
35000 kPa	0.00107 1/K	0.00107 1/K	0.00108 1/K	0.00109 1/K	0.0011 1/K	0.00111 1/K	0.00112 1/K	0.00113 1/K
40000 kPa	0.00104 1/K	0.00105 1/K	0.00105 1/K	0.00106 1/K	0.00106 1/K	0.00107 1/K	0.00107 1/K	0.00108 1/K
45000 kPa	0.00102 1/K	0.00103 1/K	0.00103 1/K	0.00104 1/K	0.00104 1/K	0.00105 1/K	0.00105 1/K	0.00105 1/K
50000 kPa	0.001 1/K	0.00101 1/K	0.00101 1/K	0.00101 1/K	0.00102 1/K	0.00102 1/K	0.00102 1/K	0.00103 1/K
55000 kPa	0.000991 1/K	0.000992 1/K	0.000993 1/K	0.000994 1/K	0.001 1/K	0.001 1/K	0.00101 1/K	0.00101 1/K
